Consider one compound from US9364462B2, “Alpha-1-adrenergic receptor agonist therapy” (The Regents of the University of California, priority 2012, dated 2016).

For one assay, the system named is cardiac myocytes. The assay is described as follows: Cardiac cell protective and adaptive (anabolic) effects in vitro, comparison of alpha-1-agonists. Format: cell-based.
The nature of assay [1]: Learning and memory, Barnes maze, long-term treatment of normal WT mice. The assay is classed as in vivo, mouse. To be noted: 9 months, 10 mg/L in drinking water. As to the method:
FIG. 18. Long-term alpha-1A agonist therapy improves learning and memory. Normal WT mice were treated 9 months with the alpha-1A agonist cirazoline, 10 mg/L in drinking water, and learning and memory were tested versus control mice using the Barnes maze. Left. […] Right. […] These studies treated mice for long periods with cirazoline, adding it to the drinking water. Mice treated with cirazoline had improvements in tests of learning and of memory (FIG. 18). […] 9 months in a mouse is equivalent to 18 to 27 years in a human.

Molecules are shown by their SMILES.

With `c1ccc(C2CC2)c(OCC2=NCCN2)c1` [cirazoline], in the assay with cardiac myocytes (cardiac myocytes, FIG. 1-2), the “potency and efficacy relative to A61603” value was “a good bit less potent and efficacious”. In the assay with cardiac myocytes (cells (e.g. cardiac myocytes)), the “specificity, potency, efficacy in stimulating anabolic effects in cells relative to A61603” value was “not as specific, potent, or efficacious as A61603”. For the same compound, the “memory trials (errors made)” value in assay [1] is recorded as “Findings were similar”. In assay [1] (vs control mice), the “errors in learning trials” value is on record as “fewer errors” and the “time to solve in learning trials” value was “faster to solve”.
